Reference: patent US20240052053A1, “ENHANCEMENT OF ANTIBODY-DEPENDENT CELL-MEDIATED CYTOTOXICITY (ADCC)” (IO Biotech ApS, priority 2017, published 2024)
Entries after “also recorded” stand apart in the source; their conditions may differ.

Tested on: U266 myeloma cells
Test: 51Cr-release cytotoxic assay with PD-L1-specific CTLs
Type: cell-based, human
Conditions: U266 cells pretreated with IFN-γ
Experimental: The cytotoxicity assay was performed as in Example 1. Briefly, HLA-A2-positive CTLs that were specific to PD-L1 were thawed, rested over-night and used as effector cells against 51 Cr-labeled HLA-A2-positive U266 myeloma cells in different effector to target (E:T)-cell ratios.

IFN-γ: Interferon gamma, a major inducer of PD-L1 expression, used to pretreat U266 cells
killing of U266 cells by PD-L1 specific CTLs after pretreatment: more susceptible to being killed; also recorded: tendency towards increased killing
